Measurements: US8796201B2 (The Board of Trustees of the Leland Stanford Junior …, priority 2002, dated 2014)
Entries after “also recorded” stand apart in the source; their conditions may differ. Where no end group is shown, it is not given here.

Tests used:
[1] = test system: PQPQLPYPQPQLPY; test: Hydrolysis of gliadin peptide by pancreatic proteases; type: biochemical, wheat; conditions: elastase at 100 ng/μl (non-physiological)
Excerpt: Because BBM exopeptidases are restricted to N- or C-terminal processing, it was investigated if generation of additional free peptide ends by pancreatic enzymes would accelerate digestion.

[2] = test system: PQPQLPYPQPQLP; test: Acceleration of brush border mediated digestion by exogenous endoproteases; type: biochemical, wheat; conditions: 27 ng/μl BBM, one hour
Protocol: FIG. 3. Dose dependent acceleration of brush border mediated digestion by exogenous endoproteases. […] This peptide was digested with 27 ng/μl brush border membranes, either alone, with increasing amounts of exogenous prolyl endopeptidase (PEP, specific activity 28 μU/pg) from Flavobacterium meningosepticum (US Biological, MA), or with additional elastase (E-1250, Sigma, Mo.), bromelain (B-5144, Sigma, Mo.) or papain (P-5306, Sigma, Mo.) (12). After one hour, the fraction of remaining (SEQ ID NO:4) […] (compared to the initial amount at t=0 min) was analyzed and quantified as in FIG. 1.
Alerted by the high proline content as a hallmark of most immunogenic gliadin peptides, a proline-specific endopeptidase was tested for the generation of new, free peptide termini. A literature search on available proteases led to the identification of prolyl endopeptidase (PEP) from Flavobacterium meningosepticum, which is specific for the C-terminal cleavage of prolines and readily available from recombinant sources (Yoshimoto et al. (1991) J. Biochem. 110, 873-8). The stable (SEQ ID NO:4) […] intermediate was digested with BBM in the presence of exogenous PEP. […] As little as 3.5 pg PEP/27 ng BBM protein was sufficient to double the extent of proteolysis of this gliadin fragment compared to incubation with BBM alone. In comparison, other commonly used proteases like papain, bromelain or porcine elastase were much less efficient, requiring 30-fold (papain) or 3000-fold (bromelain, elastase) higher amounts of enzyme compared to PEP to give similar results. Their proteolysis was restricted to the cleavage of the Gln^4-Leu^5 and/or Gln^11-Leu^12 bonds.
A similar preferential cleavage was found for (SEQ ID NO:1) QLQPFP^↓QPQLPY. This is in agreement with the preference of this prolyl endopeptidase for a second proline in the S2′ position (Bordusa and Jakubke (1998) Bioorg. Med. Chem. 6, 1775-80). Based on this P^↓XP motif and on the present data, up to 16 new, major cleavage sites can be predicted in the α2-gliadin sequence, a major source of immunodominant epitopes identified thus far upon PEP treatment. All of them are located in the critical N-terminal part. The internal cleavage by PEP can be expected to generate additional (otherwise inaccessible) substrates for DPP IV and DCP thereby complementing the natural assimilation process of gliadins by the BBM. Thus, the specificity of prolyl endopeptidase is ideally suited for detoxification of persistent immunoactive gliadin peptides in Celiac Sprue.

[3] = test system: α2-gliadin; test: EPB2 activation and α2-gliadin digestion under acidic conditions; type: biochemical, wheat
Excerpt: The gene for an endoprotease (EPB2; […] accession number U19384, nt 94-1963) from barley (Hordeum vulgare subsp. vulgare) was subcloned into a pET28b (Invitrogen) vector using BamH1 and EcoR1 insertion sites; the resulting plasmid was designated pMTB1. […] The proprotein was solubilized from the inclusion bodies using 7 M urea. The solubilized protein was purified on a Ni-NTA column. Auto-activation of proEPB2 to its mature, active form was achieved by addition of citrate-phosphate buffer, pH 3 (prepared by mixing 0.1 M sodium citrate and 0.2 M sodium phosphate). Under such acidic conditions, proEPB2 converts rapidly into a mature form with a molecular weight of 30 kDa (FIG. 2). By 72 hours, mature EPB2 undergoes autolysis. N-terminal sequencing yielded an N-terminal sequence beginning with VSDLP.
The pH optimum of proEPB2 activation and α2-gliadin digestion is 2.4-3.5, which can therefore provide a treatment for Celiac Sprue consisting of oral administration of proEPB2.

[4] = test system: rat brush border membrane (BBM) peptidases; type: in vitro ADME
Protocol: To investigate the digestion of gluten, liquid chromatography coupled mass spectroscopy analysis (LC-MS-MS) was utilized to investigate the pathways and associated kinetics of hydrolysis of immunodominant gliadin peptides treated with rat BBM preparations. Because the rodent is an excellent small animal model for human intestinal structure and function, rat BBM was chosen as a suitable model system for these studies.
BBM fractions were prepared from rat small intestinal mucosa as described in Ahnen et al. (1982) J. Biol. Chem. 257, 12129-35. […] No proline aminopeptidase (EC 3.4.11.5) or prolyl endopeptidase activity (PEP, EC 3.4.21.26) activity was detectable (<5 μU/μg). Alkaline phosphatase and sucrase were used as control BBM enzymes with activities of 66 μU/μg and 350 μU/μg, respectively.
BBM fractions were partially purified from the small intestinal mucosa of adult female rats maintained on an ad libitum diet of wheat-based standard rodent chow. Total protein content was determined by a modified method of Lowry with BSA as a standard. Alkaline phosphatase activity was determined with nitrophenyl phosphate. Sucrase activity was measured using a coupled glucose assay. […] PEP activity was determined continuously with 0.4 mM Z-Gly-Pro-pNA in PBS:H2O:dioxane (8:1.2:0.8) at 30° C. One unit is the consumption of 1 μmol substrate per minute.
Proteolysis with the BBM preparation was investigated using the peptide (SEQ ID NO:1) […], a product of chymotryptic digestion of α-9 gliadin (Arentz-Hansen et al. (2000) J. Exp. Med. 191, 603-12). […] It was subjected to BBM digestion, followed by LC-MS-MS analysis. A standard 50 μl digestion mixture contained 100 μM of synthetic peptide, 10 μM tryptophan and Cbz-tryptophan as internal standards, and resuspended BBM preparations with a final protein content of 27 ng/μl and exogenous proteins, as indicated, in phosphate buffered saline. After incubation at 37° C. for the indicated time, the enzymes were inactivated by heating to 95° C. for 3 minutes. The reaction mixtures were analyzed by LC-MS (SpectraSystem, ThermoFinnigan) using a C18 reversed phase column (Vydac 218TP5215, 2.1×150 mm) with water:acetonitrile:formic acid (0.1%):trifluoroacetic acid (0.025%) as the mobile phase (flow: 0.2 ml/min) and a gradient of 10% acetonitrile for 3 minutes, 10-20% for 3 minutes, 20-25% for 21 minutes followed by a 95% wash. Peptide fragments in the mass range of m/z=300-2000 were detected by electrospray ionization mass spectroscopy using a LCQ ion trap and their identities were confirmed by MSMS fragmentation patterns.
BBM fractions were prepared from rat small intestinal mucosa.

[5] = In vivo perfusion of peptides through rat jejunum; conditions: 15-20 cm jejunum segment, residence time 20 min
Protocol: FIG. 5. In vivo brush border membrane digestion of peptides.
In Vivo Endopeptidase Activity. An adult (female or male) rat was anesthetized and maintained at 36-37° C. during the entire surgical procedure. The peritoneal cavity was opened, and a small incision was made at the beginning and the end of a 15-20 cm jejunum segment. Polyethylene catheters were inserted and secured into the two ends. The input catheter was connected with a pump-driven syringe filled with a solution. The jejunum segment was perfused initially with PBS buffer to remove any residual debris at a flow rate of 0.4 ml/min. Purified peptide solutions (peptide concentration ranges from 25-100 μM) were then perfused at 0.4 ml/min through the jejunum segment with a 10-40 min residence time. In the case of a co-perfusion, the input catheter is connected with two simultaneous syringes, one with a peptide solution and the other with the prolyl endopeptidase solution (concentration ranges from 50-500 μU/μl). Fluid from the output catheter was collected into small centrifuge tubes in dry ice for subsequent analysis. The collected digestive products were analyzed by HPLC on a C18 column.

[6] = test system: Lactobacillus helveticus PEP (Genbank ID#321529)
[7] = test system: MX PEP (recombinant prolyl endopeptidase from Myxococcus xanthus); test: 0.1 μM MX PEP in PBS buffer; conditions: 37° C.
[8] = test system: FM PEP (recombinant prolyl endopeptidase from Flavobacterium meningosepticum); test: 0.1 μM FM PEP in PBS buffer; conditions: 37° C.
[9] = test system: chymotrypsin; test: gastric and pancreatic proteases, chymotrypsin playing a major role
[10] = test system: pepsin (1:100 w/w ratio), trypsin (1:100), chymotrypsin (1:100), elastase (1:500) and carboxypeptidase (1:100); test: composite gastric/pancreatic enzymatic digestion
[11] = test system: SC PEP (recombinant prolyl endopeptidase from Sphingomonas capsulata); test: 0.1 μM SC PEP in PBS buffer; conditions: 37° C., up to t=5 min
[12] = test system: pepsin or any pancreatic enzyme; test: pepsin or any pancreatic enzyme
[13] = test system: prolyl endopeptidase (PEP, specific activity 28 μU/pg) from Flavobacterium meningosepticum (US Biological, MA); test: 27 ng/μl brush border membranes with exogenous prolyl endopeptidase from Flavobacterium meningosepticum; conditions: rat, up to one hour
[14] = kidney or brush border membranes

## trypsin
[1]
  hydrolysis of PQPQLPYPQPQLPY: No proteolysis was detected

## bromelain [reference compound]
[2]
  higher amount of enzyme compared to PEP to give similar results: 3000 fold

## proEPB2: inactive proprotein form of barley endoprotease EPB2
[3]
  pH optimum of proEPB2 activation and α2-gliadin digestion: 2.4-3.5

## WQIPEQSR
[4]; [14]
  half-life of disappearance: ~60 min

## elastase: porcine elastase (E-1250, Sigma), pancreatic protease [reference compound]
[1]
  hydrolysis of PQPQLPYPQPQLPY: capable of hydrolyzing
[2]
  higher amount of enzyme compared to PEP to give similar results: 3000 fold

## QLQPFPQPQLPY
[5]
  fraction proteolyzed in the perfusion experiment: > 90%
[4]; [14]
  apparent half life of disappearance of parent peptide: 35 min

## RRLIEDNEYTARG
[4]
  clearance of digestive intermediates: cleared completely within one hour
[4]; [14]
  apparent half life of disappearance of parent peptide: 10 min

## YQEPVLGPVRGPFPIIV
[6]
  cleaved bond: P-V and P-I

## RPKHPIKHQ
[6]
  cleaved bond: P-I

## LQLQPFPQPQLPYPQPQLPYPQPQLPYPQPQPF
[7]
  fragment found: YPQPQPF, first_seen, t=5 min
[8]
  fragment found: (SEQ ID NO:12, aa 1-19) LQLQPFPQPQLPYPQPQLP, first_seen, t=1 min; also recorded: (SEQ ID NO:12, aa 1-14) LQLQPFPQPQLPYP, first_seen, t=1 min; also recorded: (SEQ ID NO:12, aa 1-12) LQLQPFPQPQLP, first_seen, t=1 min; also recorded: QPQPF, first_seen, t=1 min
[9]
  not cleaved: remained intact despite prolonged exposure to proteases
[10]
  not cleaved: stable product of gastric and pancreatic digestion

## EPB2: cysteine endoprotease from barley (Hordeum vulgare), accession U19384
[3]; acidic conditions, mature form
  digestion of purified α2-gliadin: efficiently digests purified α2-gliadin
[3]; citrate-phosphate buffer, pH 3
  time by which mature form undergoes autolysis: ≤ 72 h

## chymotrypsin
[1]
  hydrolysis of PQPQLPYPQPQLPY: No proteolysis was detected

## PQPQLPYPQPQLP
[7]; up to t=5 min
  cleaved bond: P-Y, major, t=5 min
[11]
  cleaved bond: P-Q, t=5 min; also recorded: P-Y, t=5 min
[12]
  not cleaved: resistant to proteolysis by pepsin or any pancreatic enzyme
[13]
  cleaved bond: Pro8-Gln9, major; also recorded: Pro6-Tyr7, minor
[8]; up to t=5 min
  cleaved bond: P-Q, major, t=5 min

B1: papain: papain (P-5306, Sigma) (protein, UniProt P00784 134-345, looked up)
Papain: IPEYVDWRQKGAVTPVKNQGSCGSCWAFSAVVTIEGIIKIRTGNLNEYSEQELLDCDRRSYGCNGGYPWSALQLVAQYGIHYRNTYPYEGVQRYCRSREKGPYAAKTDGVRQVQPYNEGALLYSIANQPVSVVLEAAGKDFQLYRGGIFVGPCGNKVDHAVAAVGYGPNYILIKNSWGTGWGENGYIRIKRGTGNSYGVCGLYTSSFYPVKN
[2]
  higher amount of enzyme compared to PEP to give similar results: 30 fold
